Experimental findings from patent US20260102383A1, “LPAR1 Inhibitors” (AbbVie Inc., priority 2024, published 2026) are described below.

pIC50: −log10 of the molar value. Where two headings read alike, the source gives them in different places.

The assay has as its target T1, human LPAR1 (Homo sapiens, UniProt Q92633).
T1 construct: host or cells: TangoEDG2-bla U2OS cells
As to the kind of experiment: Arrestin assay (Arrestin Reporter EDG2-bla U2OS), inhibition of LPA-stimulated signal. The assay is classed as cell-based. Conditions: TangoEDG2-bla U2OS cells expressing human LPAR1, 0.25 μM LPA. As for the experimental part: The inhibitory activity of compounds 15, 62, 77, 84 and 169 against LPAR1 was measured using an Arrestin assay in U2OS cells expressing human LPAR1.
FreeStyle media was warmed in a 37° C. water bath. Cryo-preserved vial(s) of TangoEDG2-bla U2OS cells were rapidly thawed in a 37° C. water bath. The thawed cells were added to FreeStyle media and cells were pelleted at 300×g for 5 minutes. The supernatant was aspirated, and cells were resuspended in FreeStyle media. Cell density was adjusted to 0.25×10^6 cells/mL. Cells (1×10^4 in 40 μL) were added to each well of Greiner 384 well black cell plate(s). Cell plate(s) were placed in a humidified 37° C./5% CO2 incubator for 18-20 hours. Dilutions of test compound were prepared at 6× final concentration; 12-point, 3-fold dilutions using HH Buffer (1×HBSS plus 20 mM HEPES). The 6× test compound was then added to the cell plate(s) at 10 μL/well. The final concentration ranged from 10 μM to 0.00006 μM. Cell plate(s) were incubated in a humidified 37° C./5% CO2 incubator for 1 hour. During the incubation, 6×LPA was prepared at 1.5 μM in 0.1% BSA HH Buffer. After the 1-hour incubation of test compound with cells, the LPA was added to the cell plate(s) at 10 μL/well (final LPA concentration of 0.25 μM). Cell plate(s) were returned to a humidified 37° C./5% CO2 incubator for 3 hours. The Development solution was made up per the LiveBLAzerFRET B/G kit protocol. The Development solution was added to the cell plate(s) at 10 μL/well. Cell plates were incubated in the dark at room temperature for 2 hours. Plate(s) were read on an Envision Plate Reader (Perkin Elmer) to read fluorescence; excitation at 409 nm with emission at 460 nm and 530 nm. Raw Data for analysis is the ratio of emission at 460 nm divided by emission 530 nm. The formula used to determine % Inhibition is as follows (1−(Raw Data−Low Average)/(High Average−Low Average))*100. Percent Inhibition was plotted to determine IC50 value with GraphPad Prism 9.5.0 software using Variable slope 4-parameter curve fit analysis.
Additional compounds of the present disclosure were synthesized in a manner similar to the compounds described above and understood by a person of ordinary skill in the art. The inhibitory activity of the compounds of the present disclosure against LPAR1 was measured using the above-referenced Arrestin Assay protocol.

The mark [1] stands for this setting: read-out: Arrestin Reporter EDG2-bla U2OS Human Merged IC50.

T1 sequence (Q92633 whole entry): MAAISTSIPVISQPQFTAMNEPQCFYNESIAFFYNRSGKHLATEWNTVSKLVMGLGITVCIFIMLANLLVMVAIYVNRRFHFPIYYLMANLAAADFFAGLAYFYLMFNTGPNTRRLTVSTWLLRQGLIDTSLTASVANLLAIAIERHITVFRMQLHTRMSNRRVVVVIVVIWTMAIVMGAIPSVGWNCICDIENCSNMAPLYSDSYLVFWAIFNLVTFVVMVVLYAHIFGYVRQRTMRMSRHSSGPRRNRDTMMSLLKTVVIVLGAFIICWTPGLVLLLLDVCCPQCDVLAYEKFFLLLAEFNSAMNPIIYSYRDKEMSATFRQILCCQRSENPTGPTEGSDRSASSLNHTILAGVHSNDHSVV

`CC(C)c1c(F)cnn1C1(C(=O)Nc2ccc(Cl)cc2OC(F)F)CCN(C[C@@H](C(=O)O)C2CCOCC2)CC1` [Compound 158, (2.8)-3-[4-[[4-chloro-2-(difluoromethoxy)phenyl]carbamoyl]-4-(4-fluoro-5-isopropyl-pyrazol-1-yl)-1-piperidyl]-2-tetrahydropyran-4-yl-propanoic acid]: the negative logarithm of the IC50 (pIC50) (as a rule, the IC50 on a negative log10 scale, so that one unit is a factor of ten) under setting [1] was 7.34. For `CC(C)c1ccnn1C1(C(=O)Nc2ccc(Cl)cc2OC(F)F)CCN(CC2(C(=O)O)CC3(CCC3)C2)CC1` [Compound 31, 2-[[4-[[4-chloro-2-(difluoromethoxy)phenyl]carbamoyl]-4-(5-isopropylpyrazol-1-yl)-1-piperidyl]methyl]spiro[3.3] heptane-2-carboxylic acid], the pIC50 under setting [1] was 8.18. With `COC1(C(=O)N2CCC(CN3CCC(C(=O)Nc4ccc(Cl)cc4OC(F)F)(n4nccc4C(C)C)CC3)(C(=O)O)CC2)CC1` [Compound 58, 4-[[4-[[4-chloro-2-(difluoromethoxy)phenyl]carbamoyl]-4-(5-isopropylpyrazol-1-yl)-1-piperidyl]methyl]-1-(1-methoxycyclopropanecarbonyl) piperidine-4-carboxylic acid], the pIC50 under setting [1] was 7.12.

As for `C=CC(=O)N1CCC(CN2CCC(C(=O)Nc3ccc(Cl)cc3OC(F)F)(n3nccc3C(C)C)CC2)(C(=O)O)CC1` [Compound 7, 4-[[4-[[4-chloro-2-(difluoromethoxy)phenyl]carbamoyl]-4-(5-isopropylpyrazol-1-yl)-1-piperidyl]methyl]-1-prop-2-enoyl-piperidine-4-carboxylic acid], the negative logarithm of the IC50 (pIC50) under setting [1] was 7.29. As for `CC(C)c1ccnn1C1(C(=O)Nc2ccc(Cl)cc2OC(F)F)CCN(C[C@@H](C(=O)O)C2COCCOC2)CC1` [Compound 215, (2S)-3-[4-[[4-chloro-2-(difluoromethoxy)phenyl]carbamoyl]-4-(5-isopropylpyrazol-1-yl)-1-piperidyl]-2-(1,4-dioxepan-6-yl)propanoic acid], under setting [1], the pIC50 is 7.73. As for `CC(C)c1c(F)cnn1C1(C(=O)Nc2ccc(Cl)cc2OC(F)F)CCN([C@H]2C[C@@H](C(=O)O)C2)CC1` (single isomer, unassigned) [Compound 123, (1s,3s)-3-[4-[[4-chloro-2-(difluoromethoxy)phenyl]carbamoyl]-4-(4-fluoro-S-isopropyl-pyrazol-1-yl)-1-piperidyl]cyclobutanecarboxylic acid], the negative logarithm of the IC50 (pIC50) under setting [1] is 7.41. Regarding `COc1cnn(C[C@H](CN2CCC(C(=O)Nc3ccc(Cl)cc3OC(F)F)(n3nccc3C(C)C)CC2)C(=O)O)c1` [Compound 202, (2S)-2-[[4-[[4-chloro-2-(difluoromethoxy)phenyl]carbamoyl]-4-(5-isopropylpyrazol-1-yl)-1-piperidyl]methyl]-3-(4-methoxypyrazol-1-yl)propanoic acid], the negative logarithm of the IC50 (pIC50) under setting [1] is 7.34. Still for that read-out and setting: with `C=C(CN1CCC(C(=O)Nc2ccc(Cl)cc2OC(F)F)(n2nccc2C(C)C)CC1)C(C)(C)C(=O)O` [Compound 117, 3-[[4-[[4-chloro-2-(difluoromethoxy)phenyl]carbamoyl]-4-(5-isopropylpyrazol-1-yl)-1-piperidyl]methyl]-2,2-dimethyl-but-3-enoic acid] the figure was 7.31. As for `CC(C)c1ccnn1C1(C(=O)Nc2ccc(Cl)cc2OC(F)F)CCN(CC2(C(=O)O)CC23CCOCC3)CC1` (centres unmarked) [Compound 73, 2-[[4-[[4-chloro-2-(difluoromethoxy)phenyl]carbamoyl]-4-(5-isopropylpyrazol-1-yl)-1-piperidyl]methyl]-6-oxaspiro[2.5]octane-2-carboxylic acid], the pIC50 under setting [1] is 7.43. On to `COc1cnn([C@H](CN2CCC(C(=O)Nc3ccc(Cl)cc3OC(F)F)(n3nccc3C(C)C)CC2)C(=O)O)c1` [Compound 224, (2R)-3-[4-[[4-chloro-2-(difluoromethoxy)phenyl]carbamoyl]-4-(5-isopropylpyrazol-1-yl)-1-piperidyl]-2-(4-methoxypyrazol-1-yl)propanoic acid], for which the pIC50 under setting [1] was 7.51. The same measure, in the same setting: then `CC(C)c1ccnn1C1(C(=O)Nc2ccc(Cl)cc2OC(F)F)CCN(C[C@H](C(=O)O)N2CCOC(C)(C)C2)CC1` [Compound 166], with 6.92; and `CC(C)c1ccnn1C1(C(=O)Nc2ccc(Cl)cc2OC(F)F)CCN(C[C@@]2(C(=O)O)CCCCO2)CC1` (single isomer, unassigned) [Compound 38], with 7.73. On the same count and under the same terms, then `CC(C)c1ccnn1C1(C(=O)Nc2ccc(Cl)cc2OC(F)F)CCN(CC2(C(=O)O)CCC(O)CC2)CC1` (centres unmarked) [Compound 34, 1-[[4-[[4-chloro-2-(difluoromethoxy)phenyl]carbamoyl]-4-(5-isopropylpyrazol-1-yl)-1-piperidyl]methyl]-4-hydroxy-cyclohexanecarboxylic acid], with 7.48; and `CC(C)c1ccnn1C1(C(=O)Nc2ccc(Cl)cc2OC(F)F)CCN([C@H]2CO[C@H](C(=O)O)C2)CC1` (single isomer, unassigned) [Compound 140], with 6.88. Consider `CC(C)c1ccnn1C1(C(=O)Nc2ccc(Cl)cc2OC(F)F)CCN(C[C@]2(C(=O)O)CCCCO2)CC1` (single isomer, unassigned) [Compound 39, (2.5)-2-[[4-[[4-chloro-2-(difluoromethoxy)phenyl]carbamoyl]-4-(5-isopropylpyrazol-1-yl)-1-piperidyl]methyl]tetrahydropyran-2-carboxylic acid], for which, under setting [1], the pIC50 was 7.89.

With `CC(C)c1ccnn1C1(C(=O)Nc2ccc(Cl)cc2OC(F)F)CCN([C@H]2C[C@@]3(C[C@H]3C(=O)O)C2)CC1` (relative stereo) [Compound 106, rel-(1R,3r,5S)-5-[4-1[4-chloro-2-(difluoromethoxy)phenyl]carbamoyl]-4-(5-isopropylpyrazol-1-yl)-1-piperidyl]spiro[2.3]hexane-2-carboxylic acid], under setting [1], the negative logarithm of the IC50 (pIC50) is 7.32.

With `CC(C)c1ccnn1C1(C(=O)Nc2ccc(Cl)cc2OC(F)F)CCN(C(=N)[C@@H]2C[C@@H]2C(=O)O)CC1` [Compound 96, (1S,2R)-2-[4-[[4-chloro-2-(difluoromethoxy)phenyl]carbamoyl]-4-(5-isopropylpyrazol-1-yl)piperidine-1-carboximidoyl] cyclopropanecarboxylic acid], the negative logarithm of the IC50 (pIC50) under setting [1] is 7.63. On to `CC(C)c1ccnn1C1(C(=O)Nc2ccc(Cl)cc2OC(F)F)CCN(CC(Cn2cccn2)C(=O)O)CC1` (centres unmarked) [Compound 129, 2-[[4-[[4-chloro-2-(difluoromethoxy)phenyl]carbamoyl]-4-(5-isopropylpyrazol-1-yl)-1-piperidyl]methyl]-3-pyrazol-1-yl-propanoic acid], for which the pIC50 under setting [1] was 7.46. Still for that read-out and setting: with `COCOCC(CN1CCC(C(=O)Nc2ccc(Cl)cc2OC(F)F)(n2nccc2C(C)C)CC1)C(=O)O` (centres unmarked) [Compound 135, 2-[[4-[[4-chloro-2-(difluoromethoxy)phenyl]carbamoyl]-4-(5-isopropylpyrazol-1-yl)-1-piperidyl]methyl]-3-(methoxymethoxy) propanoic acid] the figure was 7.11.

Take `COC[C@@H](CN1CCC(C(=O)Nc2ccc(Cl)cc2OC(F)F)(n2ncc(F)c2C(C)C)CC1)C(=O)O` [Compound 169, (2R)-2-[[4-[[4-chloro-2-(difluoromethoxy)phenyl]carbamoyl]-4-(4-fluoro-5-isopropyl-pyrazol-1-yl)-1-piperidyl]methyl]-3-methoxy-propanoic acid]: the negative-log IC50 (pIC50) (read-out: Arrestin Reporter EDG2-bla U2OS Human IC50) is 7.58. For `CC(C)c1c(Cl)cnn1C1(C(=O)Nc2ccc(Cl)cc2OC(F)F)CCN(C[C@@H](C(=O)O)C2CCOCC2)CC1` (single isomer, unassigned) [Compound 197], under setting [1], the negative logarithm of the IC50 (pIC50) is 7.85. Same read-out and setting: with `COCC[C@H](CN1CCC(C(=O)Nc2ccc(Cl)cc2OC(F)F)(n2ncc3c2C(C)(C)OC3)CC1)C(=O)O` [Compound 207, (2R)-2-[[4-[[4-chloro-2-(difluoromethoxy)phenyl]carbamoyl]-4-(6,6-dimethyl-4H-furo[3,4-c]pyrazol-1-yl)-1-piperidyl]methyl]-4-methoxy-butanoic acid] the figure was 7.03. In the case of `Cc1cnn(CC(CN2CCC(C(=O)Nc3ccc(Cl)cc3OC(F)F)(n3nccc3C(C)C)CC2)C(=O)O)c1` (centres unmarked) [Compound 189, 2-[[4-[[4-chloro-2-(difluoromethoxy)phenyl]carbamoyl]-4-(5-isopropylpyrazol-1-yl)-1-piperidyl]methyl]-3-(4-methylpyrazol-1-yl)propanoic acid], under setting [1], the negative-log IC50 (pIC50) was 7.51.
